pEC50: −log10 of the molar value.
molecular target: human activated kallikrein enzyme (Homo sapiens, UniProt P03952); assay: Plasma kallikrein inhibition, fluorogenic PFR-AMC substrate, 500 pM activated kallikrein format; assay type: biochemical; conditions: 500 pM activated kallikrein, 300 uM PFR-AMC, 30 min preincubation, 10 min reaction; read-out: Primary Dose Response Assay: Average EC50
Description: Compounds were evaluated for inhibition of the human activated kallikrein enzyme in two formats of an assay employing a fluorogenic peptide substrate. In one assay format, the concentrations of reagents were as follows: 20 mM Tris pH 7.5, 1 mM EDTA, 150 mM sodium chloride, 0.1% PEG-400, 0.1% Triton X-100, 500 pM activated kallikrein enzyme, 300 uM Pro-Phe-Arg-7-amido-4-methylcoumarin (PFR-AMC) substrate. Prior to reaction initiation with substrate, enzyme and inhibitors were preincubated for 30 min at room temperature. After initiation with substrate, reactions were incubated for 10 min at room temperature and fluorescence emission at 460 nm from 380 nm excitation measured with a microplate reader. In another assay format, the concentrations of reagents were as follows: 20 mM Tris pH 7.5, 1 mM EDTA, 150 mM sodium chloride, 0.1% PEG-400, 0.1% Triton X-100, 5 pM activated kallikrein enzyme, 300 uM PFR-AMC substrate. Prior to reaction initiation with substrate, enzyme and inhibitors were preincubated for 30 min at room temperature. After initiation with substrate, reactions were incubated for 18 hr at room temperature and fluorescence emission at 460 nm from 380 nm excitation measured with a microplate reader.
Table 49 provides the results of the assay in the format with 500 pM activated kallikrein assay. For the compounds listed in Table 49, the EC50 values are reported according to the following ranges: A≤1.0 nM; 1.0 nM<B≤10 nM; 10 nM<C≤100 nM; 100 nM<D≤1000 nM; 1000 nM<E≤6000 nM; 6000 nM<F.
Table 51 provides comparative plasma kallikrein inhibition potency in the assay format with 500 pM activated kallikrein assay (described in detail in a preceding example). For the compounds listed in Table 51, the EC50 values are reported according to the following ranges: A≤1.0 nM; 1.0 nM<B≤10 nM; 10 nM<C≤100 nM; 100 nM<D≤1000 nM; 1000 nM<E≤6000 nM; 6000 nM<F.

human activated kallikrein enzyme, sequence (P03952 391-638 limits assumed): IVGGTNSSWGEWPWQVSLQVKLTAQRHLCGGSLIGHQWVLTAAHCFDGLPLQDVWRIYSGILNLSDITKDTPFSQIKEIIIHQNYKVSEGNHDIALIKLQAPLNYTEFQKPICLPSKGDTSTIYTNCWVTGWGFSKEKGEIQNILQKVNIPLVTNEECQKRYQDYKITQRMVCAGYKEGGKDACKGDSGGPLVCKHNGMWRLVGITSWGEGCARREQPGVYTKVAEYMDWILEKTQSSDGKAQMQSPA
human activated kallikrein enzyme, sequence (P03952 20-390 partner limits assumed): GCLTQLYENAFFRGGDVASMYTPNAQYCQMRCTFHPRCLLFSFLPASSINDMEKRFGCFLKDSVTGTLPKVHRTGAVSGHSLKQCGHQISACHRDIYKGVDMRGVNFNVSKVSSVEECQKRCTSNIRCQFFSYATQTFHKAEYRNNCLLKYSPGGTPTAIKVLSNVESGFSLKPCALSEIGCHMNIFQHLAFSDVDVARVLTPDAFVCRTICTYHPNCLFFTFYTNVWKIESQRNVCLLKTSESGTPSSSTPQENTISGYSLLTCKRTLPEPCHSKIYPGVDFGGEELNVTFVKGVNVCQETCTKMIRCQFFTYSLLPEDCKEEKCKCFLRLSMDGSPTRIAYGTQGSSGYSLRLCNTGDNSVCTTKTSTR

Structure (SMILES) | pEC50
Cc1ccnc([C@H]2C[C@@H]2C(=O)Nc2cc(NCc3cn4cc(Cl)cc(N5CC(=O)N(C)C5=O)c4n3)ncn2)n1 [Example 380, (1S,2S)-N-(6-(((6-chloro-8-(3-methyl-2,4-dioxoimidazolidin-1-yl)imidazo[1,2-a]pyridin-2-yl)methyl)amino)pyrimidin-4-yl)-2-(4-methylpyrimidin-2-yl)cyclopropane-1-carboxamide] | > 9.00
CCc1cc(N2CC(=O)N(C)C2=O)c2nc(CNc3cc(NC(=O)[C@H]4C[C@@H]4c4nccc(C)n4)ncn3)cn2c1 [Example 538, (1S,2S)-N-(6-(((6-ethyl-8-(3-methyl-2,4-dioxoimidazolidin-1-yl)imidazo[1,2-a]pyridin-2-yl)methyl)amino)pyrimidin-4-yl)-2-(4-methylpyrimidin-2-yl)cyclopropane-1-carboxamide] | > 9.00
Cc1ccnc([C@H]2C[C@@H]2C(=O)Nc2cc(OCc3cn4cc(C5CC5)cc(N5CC6CC6C5=O)c4n3)cnn2)n1 (stereo partly drawn) [Example 571, (1S,2S)-N-(5-((6-cyclopropyl-8-(2-oxo-3-azabicyclo[3.1.0]hexan-3-yl)imidazo[1,2-a]pyridin-2-yl)methoxy)pyridazin-3-yl)-2-(4-methylpyrimidin-2-yl)cyclopropane-1-carboxamide] | > 9.00
O=C(Nc1cc(NCc2cn3cc(C4CC4)ccc3n2)ccn1)[C@H]1[C@H](CO)[C@@H]1c1cccc(Cl)c1 (racemic) [Example I-213, rac-(1R*,2S*,3R*)-2-(3-chlorophenyl)-N-(4-(((6-cyclopropylimidazo[1,2-a]pyridin-2-yl)methyl)amino)pyridin-2-yl)-3-(hydroxymethyl)cyclopropane-1-carboxamide] | 8.00 to 9.00
COCc1cnc(NC(=O)[C@H]2C[C@@H]2c2nccc(C)n2)nc1OCc1cn2cc(C3CC3)cc(N3CC(=O)N(C)C3=O)c2n1 [Example 663, (1S,2S)—N-(4-((6-cyclopropyl-8-(3-methyl-2,4-dioxoimidazolidin-1-yl)imidazo[1,2-a]pyridin-2-yl)methoxy)-5-(methoxymethyl)pyrimidin-2-yl)-2-(4-methylpyrimidin-2-yl)cyclopropane-1-carboxamide] | > 9.00
Cc1nc(NC(=O)[C@H]2C[C@@H]2c2nsc(C)n2)cc(N[C@H](C)c2cn3cc(C4CC4)cc(N4CC(=O)N(C)C4=O)c3n2)n1 (relative stereo) [Example 527, rac-(1S*,2S*)-N-(6-(((R)-1-(6-cyclopropyl-8-(3-methyl-2,4-dioxoimidazolidin-1-yl)imidazo[1,2-a]pyridin-2-yl)ethyl)amino)-2-methylpyrimidin-4-yl)-2-(5-methyl-1,2,4-thiadiazol-3-yl)cyclopropane-1-carboxamide] | 8.00 to 9.00

Results, then the molecule that gave them:

pEC50 | Structure (SMILES)
< 5.22 | CN(C(=O)[C@H]1C[C@@H]1c1cccc(Cl)c1)c1cc(NCc2cn3cc(C4CC4)ccc3n2)ncn1 [Example 350, (1S,2S)-2-(3-chlorophenyl)-N-(6-(((6-cyclopropylimidazo[1,2-a]pyridin-2-yl)methyl)amino)pyrimidin-4-yl)-N-methylcyclopropane-1-carboxamide]
6.00 to 7.00 | O=C(Nc1cc(NCc2cn3cc(C4CC4)ccc3n2)ncn1)[C@@H]1C[C@H]1c1cccc(Cl)c1 (single isomer, unassigned) [Example 56]
> 9.00 | O=C(Nc1cc(NCc2cn3cc(C4CC4)cc(OC4CNC4)c3n2)ncn1)[C@H]1C[C@@H]1c1cccc(Cl)c1 [Example 306, (1S,2S)—N-(6-(((8-(azetidin-3-yloxy)-6-cyclopropylimidazo[1,2-a]pyridin-2-yl)methyl)amino)pyrimidin-4-yl)-2-(3-chlorophenyl)cyclopropane-1-carboxamide]
< 5.22 | CO[C@H]1C[C@H](c2cn3cc(C4CC4)ccc3n2)N(c2cc(NC(=O)[C@H]3C[C@@H]3c3cccc(Cl)c3)ncn2)C1 [Example 616, (1S,2S)-2-(3-chlorophenyl)-N-(6-((2R,4S)-2-(6-cyclopropylimidazo[1,2-a]pyridin-2-yl)-4-methoxypyrrolidin-1-yl)pyrimidin-4-yl)cyclopropane-1-carboxamide]

Reference: patent US20240228488A1 (TAKEDA PHARMACEUTICAL COMPANY LIMITED, priority 2021, published 2024)
